From the RepoRT retention time repository

Assay: RP, Waters ACQUITY UPLC BEH C18, 50 × 2.1 mm, 1.7 µm, 55 °C, 0.4 mL/min, estimated dead time 0.28 min; A: 40% water + 60% acetonitrile + 0.1% acetic acid + 10 mM ammonium acetate; B: 10% acetonitrile + 90% isopropanol + 0.1% acetic acid + 10 mM ammonium acetate; gradient (min/%B) 0/40 2/43 2.1/50 12/54 12.1/70 18/99 19/99
Settings: stereoisomer not certain

Row | Compound | LC retention time
1 | CCCCCCCCCCCCC(O)C(=O)O (stereo not drawn) [2-hydroxymyristic acid] | 0.92 min
2 | CC12CCC3C(CCC4CC(OS(=O)(=O)O)CCC43C)C1CCC2=O (stereo not drawn) | 1 min
3 | CCCCCCCCCCCC(=O)O [lauric acid] | 1 min
4 | CCCCCC=CCC=CCC=CCC=CCCCC(=O)OC(COCCCCCCCCCCCCCCCC)COP(=O)([O-])OCC[N+](C)(C)C (stereo not drawn) [PC(O-16:0/20:4)] | 8 min
5 | CCCCCCCC/C=C\CCCCCCCCCCCC(=O)O [cis-13-docosenoic acid] | 4 min
6 | CC(CCC(=O)O)C1CCC2C3C(O)CC4CC(O)CCC4(C)C3CC(O)C12C (stereo not drawn) [cholic acid] | 1 min
7 | CCCCC/C=C\C/C=C\CCCCCCCC(=O)O [linoleic acid] | 2 min
8 | CCCCCC/C=C\CCCC(=O)O [cis-5-dodecenoic acid] | 1 min

The next lines start with the values.

Row | LC retention time | Compound
9 | 7 min | CCCCCC=CCC=CCCCCCCCC(=O)OC(COC(=O)CCCCCCCCCCCCCCC)COP(=O)([O-])OCC[N+](C)(C)C (stereo not drawn) [PC(16:0/18:2)]
10 | 6 min | CCCCCCCCC=CCCCCCCCC(=O)OC(COC(=O)CCCCCCCCCCCCCCC)COP(=O)(O)OC1C(O)C(O)C(O)C(O)C1O (stereo not drawn) [PI(16:0/18:1)]
11 | 2 min | CCCCCC=CCC=CCC=CCC=CCCCC(=O)O [arachidonic acid]
12 | 1.35 min | CCCCCCCCCCCCCCCC(=O)OCC(O)COP(=O)([O-])OCC[N+](C)(C)C (stereo not drawn) [LPC(16:0/0:0)]
13 | 1 min | C=CCCCCCCCCC(=O)O [undecylenic acid]
